Test results taken from patent publication US7223749B2, “Bicyclic heterocycles, pharmaceutical compositions containing these compounds, their use and processes for preparing them” (Boehringer Ingelheim International GmbH, priority 2003, dated 2007).

Molecular target: T1, human EGF-receptor kinase (Homo sapiens, UniProt P00533)
T1 construct: GST; made in house; host or cells: Sf9 insect cells (Baculovirus)
Assay: Inhibition of human EGF-receptor kinase (cytoplasmatic tyrosine kinase domain, GST fusion protein, pEY substrate, ELISA readout)
Assay type: biochemical
Conditions: cytoplasmatic tyrosine kinase domain (Met 664 to Ala 1186) as GST fusion protein; poly(EY)/bio-pEY substrate; 30 minutes at ambient temperature
Method: The inhibition of human EGF-receptor kinase was determined using the cytoplasmatic tyrosine kinase domain (methionine 664 to alanine 1186, based on the sequence published in Nature 309 (1984), 418). To do this, the protein was expressed in Sf9 insect cells as a GST fusion protein using the Baculovirus expression system.
The enzyme activity was measured in the presence or absence of the test compounds in serial dilutions. The polymer pEY (4:1) produced by SIGMA was used as the substrate. Biotinylated pEY (bio-pEY) was added as the tracer substrate. Every 100 μl of reaction solution contained 10 μl of the inhibitor in 50% DMSO, 20 μl of the substrate solution (200 mM HEPES pH 7.4, 50 mM magnesium acetate, 2.5 mg/ml of poly(EY), 5 μg/ml of bio-pEY) and 20 μl of enzyme preparation. The enzyme reaction was started by the addition of 50 μl of a 100 μM ATP solution in 10 mM magnesium chloride. The dilution of the enzyme preparation was adjusted so that the incorporation of phosphate into the bio-pEY was linear in terms of time and quantity of enzyme. […]
The enzyme assays were carried out at ambient temperature over a period of 30 minutes and were ended by the addition of 50 μl of a stopping solution (250 mM EDTA in 20 mM HEPES pH 7.4). […] The extinction was measured at OD450 nm with an ELISA reader. All data points were measured three times. […]

T1 sequence (P00533 688-1210): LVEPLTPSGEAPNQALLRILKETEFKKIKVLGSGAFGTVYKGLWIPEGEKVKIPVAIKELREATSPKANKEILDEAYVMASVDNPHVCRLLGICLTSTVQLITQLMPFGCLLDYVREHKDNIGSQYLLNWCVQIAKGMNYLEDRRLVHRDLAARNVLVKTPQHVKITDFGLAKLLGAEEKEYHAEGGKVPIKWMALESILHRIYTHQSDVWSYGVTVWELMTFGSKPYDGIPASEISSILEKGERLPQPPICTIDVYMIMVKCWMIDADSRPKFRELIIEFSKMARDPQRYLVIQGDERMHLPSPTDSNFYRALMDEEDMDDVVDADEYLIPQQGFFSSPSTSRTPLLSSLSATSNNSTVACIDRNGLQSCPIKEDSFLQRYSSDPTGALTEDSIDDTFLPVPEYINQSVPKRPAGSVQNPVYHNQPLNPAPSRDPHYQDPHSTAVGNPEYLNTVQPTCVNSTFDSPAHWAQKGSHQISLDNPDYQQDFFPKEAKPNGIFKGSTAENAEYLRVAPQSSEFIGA

O=C(/C=C/CN1CCCOCC1)Nc1cc2c(Nc3ccc(F)c(Cl)c3)ncnc2cc1O[C@H]1CCOC1 [Example 1, 4-[(3-chloro-4-fluoro-phenyl)amino]-6-{[4-(homomorpholin-4-yl)-1-oxo-2-buten-1-yl]amino}-7-[(S)-(tetrahydrofuran-3-yl)oxy]-quinazoline]
IC50: 1.5 nM
